Assay results taken from the supplement of paper PMC10627819.
≈ marks a conversion by molar mass, not a printed value.

Legend:
S. aureus DSM 20231 [1] = assay: fitness (endpoint OD595 vs no drug) (fraction); higher = more growth
Outline: (§1)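 With the first reading as background, OD595 was measured every 30 min for 14 h in 384-well plates kept at 37 °C and inoculated at OD595 0.01. TSB, LB Lennox or CY was the medium. Fitness is the optical density at the transition into stationary phase divided by the robust mean of no-drug control wells, with a cap of 1.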

B. subtilis 168 [2] = assay: as above
Outline: as §1

S. aureus Newman [3] = assay: as above
Outline: as §1

S. pneumoniae D39V [4] = assay: as above
Outline: as §1

S. aureus DSM 20231 [5] = assay: Bliss interaction score (quartile over a dose matrix) (fitness difference); higher = more antagonism (negative = synergy)
Outline: (§2)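 Fitness was defined as normalised growth: OD595 at the start of stationary phase divided by the plate's robust no-drug mean and capped at 1. Single-drug fitness was inferred from combination measurements. The Bliss score is observed fitness minus the product of the single-drug values, summarised by quartiles across technical, biological and donor/recipient replicates.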

B. subtilis 168 [6] = assay: as above
Outline: as §2

S. aureus Newman [7] = assay: as above
Outline: as §2

S. pneumoniae D39V [8] = assay: as above
Outline: as §2

S. aureus DSM 20231 [9] = system: S. aureus DSM 20231
B. subtilis 168 [10] = system: B. subtilis 168
S. aureus Newman [11] = system: S. aureus Newman
S. pneumoniae D39V [12] = system: S. pneumoniae D39V
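Wherever Bliss interaction score (quartile over a dose matrix) is given: first quartile when negative (synergy) and third quartile when positive (antagonism).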

Cn1c2cccc(=O)c-2nc2ccccc21 [Pyocyanin] + CN[C@@H]1[C@H](O)[C@H](NC)[C@H]2O[C@@]3(O)C(=O)C[C@@H](C)O[C@H]3O[C@@H]2[C@H]1O [Spectinomycin]
fitness
Conditions | partner 2 µg/mL | partner 4 µg/mL | partner 8 µg/mL | partner 16 µg/mL
B. subtilis 168 [2], first compound 1.25 µg/mL | 0.907 | 0.914 | 0.861 | –
B. subtilis 168 [2], first compound 2.5 µg/mL | 0.887 | 0.876 | 0.857 | –
B. subtilis 168 [2], first compound 5 µg/mL | 0.762 | 0.757 | 0.708 | –
S. aureus DSM 20231 [1], first compound 1.25 µg/mL | – | 0.884 | 0.93 | 0.82
S. aureus DSM 20231 [1], first compound 2.5 µg/mL | – | 0.868 | 0.86 | 0.716
S. aureus DSM 20231 [1], first compound 5 µg/mL | – | 0.688 | 0.726 | 0.582
S. aureus Newman [3], first compound 1.25 µg/mL | – | 0.853 | 0.867 | 0.853
S. aureus Newman [3], first compound 2.5 µg/mL | – | 0.761 | 0.766 | 0.697
S. pneumoniae D39V [4], first compound 0.325 µg/mL | – | 0.995 | 0.955 | –
S. pneumoniae D39V [4], first compound 0.65 µg/mL | – | 0.96 | 0.944 | –

fitness, one replicate
Conditions | S. aureus DSM 20231 [1] | S. aureus Newman [3] | S. pneumoniae D39V [4]
first compound 0.325 µg/mL, partner 16 µg/mL | – | – | 0.729
first compound 0.65 µg/mL, partner 16 µg/mL | – | – | 0.885
first compound 1.25 µg/mL, partner 32 µg/mL | 0.656 | 0.591 | –
first compound 1.25 µg/mL, partner 64 µg/mL | 0.0503 | 0.11 | –
first compound 1.3 µg/mL, partner 4 µg/mL | – | – | 0.776
first compound 1.3 µg/mL, partner 8 µg/mL | – | – | 0.792
first compound 2.5 µg/mL, partner 32 µg/mL | 0.638 | 0.489 | –
first compound 2.5 µg/mL, partner 64 µg/mL | 0.0416 | 0.0964 | –
first compound 5 µg/mL, partner 32 µg/mL | 0.342 | 0.268 | –
first compound 5 µg/mL, partner 64 µg/mL | 0.0295 | 0.0535 | –

Conditions | Bliss interaction score
B. subtilis 168 [6] | -0.0432
S. aureus DSM 20231 [5] | -0.0492
S. aureus Newman [7] | 0.0628
S. pneumoniae D39V [8] | 0.0496

Cn1c2cccc(=O)c-2nc2ccccc21 [Pyocyanin] + Cc1cc(NS(=O)(=O)c2ccc(N)cc2)no1 [Sulfamethoxazol]
fitness
Conditions | partner 1 µg/mL | partner 2 µg/mL | partner 4 µg/mL
B. subtilis 168 [2], first compound 1.25 µg/mL | 0.869 | 0.862 | 0.877
B. subtilis 168 [2], first compound 2.5 µg/mL | 0.852 | 0.738 | 0.868
B. subtilis 168 [2], first compound 5 µg/mL | 0.669 | 0.685 | 0.774
S. aureus DSM 20231 [1], first compound 1.25 µg/mL | 0.929 | 0.939 | 0.925
S. aureus DSM 20231 [1], first compound 2.5 µg/mL | 0.831 | 0.903 | 0.893
S. aureus DSM 20231 [1], first compound 5 µg/mL | 0.641 | 0.674 | 0.689
S. pneumoniae D39V [4], first compound 0.325 µg/mL | 0.983 | ≥ 1 | 0.96
S. pneumoniae D39V [4], first compound 0.65 µg/mL | 0.936 | 0.975 | 0.933

one replicate
Conditions | fitness
B. subtilis 168 [2], first compound 1.25 µg/mL, partner 0.5 µg/mL | 0.915
B. subtilis 168 [2], first compound 2.5 µg/mL, partner 0.5 µg/mL | 0.884
B. subtilis 168 [2], first compound 5 µg/mL, partner 0.5 µg/mL | 0.632
S. aureus Newman [3], first compound 1.25 µg/mL, partner 8 µg/mL | 0.911
S. aureus Newman [3], first compound 2.5 µg/mL, partner 8 µg/mL | 0.858
S. aureus Newman [3], first compound 5 µg/mL, partner 8 µg/mL | 0.778
S. pneumoniae D39V [4], first compound 1.3 µg/mL, partner 1 µg/mL | 0.637
S. pneumoniae D39V [4], first compound 1.3 µg/mL, partner 2 µg/mL | 0.679
S. pneumoniae D39V [4], first compound 1.3 µg/mL, partner 4 µg/mL | 0.615

Conditions | Bliss interaction score
B. subtilis 168 [6] | -0.063
S. aureus DSM 20231 [5] | 0.0564
S. aureus Newman [7] | -0.0714
S. pneumoniae D39V [8] | -0.0551

CN(N=O)C(=O)N[C@@H](C=O)[C@@H](O)[C@H](O)[C@H](O)CO [Streptozotocin]
Conditions | MIC [µg/mL]
B. subtilis 168 [10] | 0.7 (≈ 2.64 µM)
S. aureus DSM 20231 [9] | 0.8 (≈ 3.02 µM)
S. aureus Newman [11] | 0.8 (≈ 3.02 µM)
S. pneumoniae D39V [12] | 5 (≈ 18.9 µM)

fitness
Conditions | 0.15 µg/mL | 0.3 µg/mL | 0.6 µg/mL | 1.2 µg/mL | 2.4 µg/mL | 4.8 µg/mL
B. subtilis 168 [2] | 0.987 | 0.961 | 0.99 | – | – | –
S. aureus DSM 20231 [1] | 0.891 | 0.843 | 0.756 | – | – | –
S. aureus Newman [3] | 0.852 | 0.735 | 0.524 | – | – | –
S. pneumoniae D39V [4] | – | – | – | 0.96 | 0.936 | 0.975

CN(N=O)C(=O)N[C@@H](C=O)[C@@H](O)[C@H](O)[C@H](O)CO [Streptozotocin] + CC1=C\[C@@H](O)CC(=O)Cc2nc(co2)C(=O)N2CCC=C2C(=O)O[C@H](C(C)C)[C@H](C)/C=C/C(=O)NC\C=C\1 [Virginiamycin M1]
fitness
Conditions | first compound 0.15 µg/mL | first compound 0.3 µg/mL | first compound 0.6 µg/mL | first compound 1.2 µg/mL | first compound 2.4 µg/mL | first compound 4.8 µg/mL
S. aureus DSM 20231 [1], partner 0.0625 µg/mL | 0.844 | 0.791 | 0.66 | – | – | –
S. aureus DSM 20231 [1], partner 0.125 µg/mL | 0.88 | 0.83 | 0.714 | – | – | –
S. aureus DSM 20231 [1], partner 0.25 µg/mL | 0.861 | 0.753 | 0.681 | – | – | –
S. pneumoniae D39V [4], partner 0.5 µg/mL | – | – | – | 0.985 | 0.99 | 0.981
S. pneumoniae D39V [4], partner 1 µg/mL | – | – | – | 0.944 | 0.966 | 0.968
S. pneumoniae D39V [4], partner 2 µg/mL | – | – | – | 0.935 | 0.939 | 0.911

fitness, one replicate
Conditions | first compound 0.15 µg/mL | first compound 0.3 µg/mL | first compound 0.6 µg/mL | first compound 1.2 µg/mL | first compound 2.4 µg/mL | first compound 4.8 µg/mL
B. subtilis 168 [2], partner 0.0625 µg/mL | ≥ 1 | 0.975 | 0.991 | – | – | –
B. subtilis 168 [2], partner 0.125 µg/mL | 0.949 | 0.92 | 0.944 | – | – | –
B. subtilis 168 [2], partner 0.25 µg/mL | ≥ 1 | ≥ 1 | 0.958 | – | – | –
S. aureus DSM 20231 [1], partner 0.5 µg/mL | 0.616 | 0.686 | 0.581 | – | – | –
S. aureus DSM 20231 [1], partner 1 µg/mL | 0.61 | 0.69 | 0.667 | – | – | –
S. aureus Newman [3], partner 0.0625 µg/mL | 0.843 | 0.677 | 0.491 | – | – | –
S. aureus Newman [3], partner 0.125 µg/mL | 0.831 | 0.682 | 0.504 | – | – | –
S. aureus Newman [3], partner 0.25 µg/mL | 0.822 | 0.661 | 0.53 | – | – | –
S. aureus Newman [3], partner 0.5 µg/mL | 0.77 | 0.639 | 0.55 | – | – | –
S. aureus Newman [3], partner 1 µg/mL | 0.765 | 0.672 | 0.517 | – | – | –
S. aureus Newman [3], partner 2 µg/mL | 0.748 | 0.629 | 0.477 | – | – | –
S. pneumoniae D39V [4], partner 0.15 µg/mL | – | – | – | 0.913 | 0.94 | 0.88
S. pneumoniae D39V [4], partner 0.3 µg/mL | – | – | – | 0.848 | 0.93 | 0.925

Conditions | Bliss interaction score
B. subtilis 168 [6] | 0.0477
S. aureus DSM 20231 [5] | -0.0415
S. aureus Newman [7] | 0.0262
S. pneumoniae D39V [8] | -0.0403
